T1: Flt3 (Homo sapiens, UniProt P36888)
T1 sequence (P36888 27-993): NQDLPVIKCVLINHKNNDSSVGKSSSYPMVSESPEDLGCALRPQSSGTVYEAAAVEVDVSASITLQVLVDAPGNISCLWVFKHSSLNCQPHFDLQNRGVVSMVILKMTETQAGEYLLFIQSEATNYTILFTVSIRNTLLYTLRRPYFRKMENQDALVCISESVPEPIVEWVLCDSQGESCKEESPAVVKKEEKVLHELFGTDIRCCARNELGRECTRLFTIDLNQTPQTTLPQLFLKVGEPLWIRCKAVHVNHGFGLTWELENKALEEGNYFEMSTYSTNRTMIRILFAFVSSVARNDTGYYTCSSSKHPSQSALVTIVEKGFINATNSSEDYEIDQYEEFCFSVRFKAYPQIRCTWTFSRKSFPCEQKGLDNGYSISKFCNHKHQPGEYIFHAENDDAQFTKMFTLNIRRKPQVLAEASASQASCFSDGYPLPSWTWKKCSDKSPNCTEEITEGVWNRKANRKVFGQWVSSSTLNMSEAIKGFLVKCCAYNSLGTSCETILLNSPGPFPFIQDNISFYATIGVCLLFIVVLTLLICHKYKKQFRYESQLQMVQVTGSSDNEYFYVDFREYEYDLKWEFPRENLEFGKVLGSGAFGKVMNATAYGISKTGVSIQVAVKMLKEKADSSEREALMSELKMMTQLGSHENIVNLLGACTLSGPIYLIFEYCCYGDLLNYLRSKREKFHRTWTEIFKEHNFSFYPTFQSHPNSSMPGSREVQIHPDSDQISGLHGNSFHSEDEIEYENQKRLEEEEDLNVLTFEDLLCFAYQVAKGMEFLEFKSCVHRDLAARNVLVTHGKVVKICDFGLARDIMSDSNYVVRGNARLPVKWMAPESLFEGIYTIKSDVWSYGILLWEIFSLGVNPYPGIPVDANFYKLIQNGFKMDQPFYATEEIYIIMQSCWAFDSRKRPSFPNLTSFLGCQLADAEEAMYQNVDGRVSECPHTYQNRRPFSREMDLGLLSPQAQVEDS

T2: Axl (Homo sapiens, UniProt P30530)
T2 sequence (P30530 26-894): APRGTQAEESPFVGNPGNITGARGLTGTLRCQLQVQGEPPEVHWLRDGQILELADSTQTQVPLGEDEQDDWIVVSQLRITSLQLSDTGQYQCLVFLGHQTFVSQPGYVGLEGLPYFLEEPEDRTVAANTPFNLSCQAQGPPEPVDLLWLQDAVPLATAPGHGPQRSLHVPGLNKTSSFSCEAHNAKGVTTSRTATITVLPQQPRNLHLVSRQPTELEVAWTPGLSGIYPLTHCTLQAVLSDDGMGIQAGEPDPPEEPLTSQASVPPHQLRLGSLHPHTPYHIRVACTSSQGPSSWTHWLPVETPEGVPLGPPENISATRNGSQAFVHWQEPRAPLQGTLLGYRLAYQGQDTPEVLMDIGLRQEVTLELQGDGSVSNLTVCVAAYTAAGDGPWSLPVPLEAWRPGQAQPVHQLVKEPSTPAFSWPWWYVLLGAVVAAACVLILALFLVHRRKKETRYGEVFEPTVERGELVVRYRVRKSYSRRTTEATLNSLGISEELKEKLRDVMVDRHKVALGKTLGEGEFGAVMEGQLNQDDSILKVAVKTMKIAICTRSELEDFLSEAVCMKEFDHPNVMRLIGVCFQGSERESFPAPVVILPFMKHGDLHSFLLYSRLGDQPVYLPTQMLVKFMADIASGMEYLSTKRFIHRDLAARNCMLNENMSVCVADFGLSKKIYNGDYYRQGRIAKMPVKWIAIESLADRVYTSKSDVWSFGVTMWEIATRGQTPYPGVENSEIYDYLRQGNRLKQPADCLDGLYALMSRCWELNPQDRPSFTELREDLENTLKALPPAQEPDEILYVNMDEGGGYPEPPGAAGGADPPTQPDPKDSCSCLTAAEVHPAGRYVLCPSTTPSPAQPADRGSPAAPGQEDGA

B1: Noggin: the BMP inhibitor Noggin (protein, UniProt Q13253 28-232, looked up)
Noggin: QHYLHIRPAPSDNLPLVDLIEHPDPIFDPKEKDLNETLLRSLLGGHYDPGFMATSPPEDRPGGGGGAAGGAEDLAELDQLLRQRPSGAMPSEIKGLEFSEGLAQGKKQRLSKKLRRKLQMWLWSQTFCPVLYAWNDLGSRFWPRYVKVGSCFSKRSCSVPEGMVCKPSKSVHLTVLRWRCQRRGGQRCGWIPIQYPIISECKCSC

Experiments:
Flt3 = biological target: T1, Flt3; details: at 1 nM; cited from earlier work
LTK = LTK (Homo sapiens, UniProt P29376); details: at 1 nM; cited from earlier work
ALK = ALK (Homo sapiens, UniProt Q9UM73); details: at 1 nM; cited from earlier work
Axl = biological target: T2, Axl; details: at 1 nM; cited from earlier work
[1] = tested on: MEL1 INS GFP/W hESC spheres; experiment: hESC suspension differentiation, flow cytometry of PDX1 and NKX6.1; assay type: cell-based, human; details: alone, conditions 2 and 3; day 9.5
Text: Treatments consisted of combinations of Cyclopamine (C), Noggin (N), and retinoic acid (R) during days 6-8, followed by subdivision of each condition into three treatment groups during day 9-9.5. Group 1) continuation of day 6-8 treatment; Group 2) treatment with EGF and KGF (EK); Group 3) treatment with EGF, KGF, and Noggin (EKN). […] Data shown are representatives of results obtained in two independent experiments. […] FIG. 17B: Quantification of PDX1 (orange gate) and NKX6.1 (blue gate) protein expressing cells in individual conditions after 9.5 days of differentiation.
Suspension-based differentiations were carried out as follows. Briefly, confluent cultures were dissociated into single cell suspension by incubation with TrypLE (Gibco). […] To induce definitive endoderm differentiation, aggregates were collected 24 hours later in a 50 ml falcon tube, allowed to settle by gravity, washed once with PBS and re-suspended in d1 media (RPMI (Gibco) containing 0.2% FBS, 1:5000 ITS (Gibco), 100 ng/ml Activin A, and 50 ng/ml WNT3a (R&D systems)). Clusters from 3 wells were combined into 2 wells at this point and distributed into fresh low-attachment plates in 5.5 ml d1 media. Media thereafter was changed daily, by removing either 4.5 ml media (at the end of d1) or 5.5 ml media the following days and adding back 5.5 ml fresh media until day 9. After day 9, only 5 ml of media was removed and added daily.
Briefly, spheres were collected and allowed to settle by gravity. Clusters were washed once in PBS and dissociated by gentle pipetting after 12-15 minutes incubation in Accumax (Innovative Cell Technologies). For sorting, cell suspensions were filtered and re-suspended in FACS buffer consisting of phosphate-buffered saline (PBS) (UCSF cell culture facility) containing 2 mM EDTA (Ambion) and 1% BSA (Sigma). Dead cells were excluded by DAPI (Sigma) staining Cell sorting was performed on a FACS Aria II (BD Bioscience). […]

[2] = tested on: MEL1 INS GFP/W hESC spheres; experiment: hESC suspension differentiation, NEUROG3 immunofluorescence; assay type: cell-based, human; details: days 6-9.5
Procedure: Undifferentiated MEL1 INS^GFP/W reporter cells (Micallef et al, 2012) were maintained on mouse embryo fibroblast feeder layers (Millipore) in hESC media as described (Guo et al, 2013b). Suspension-based differentiations were carried out as follows. Briefly, confluent cultures were dissociated into single cell suspension by incubation with TrypLE (Gibco). Cells were counted and each well of 6-well low-adherence plates were seeded with 5.5×10^6 cells in 5.5 ml hES media supplemented with 10 ng/ml Activin A (R&D systems) and 10 ng/ml HeregulinB1 (Peprotech). Plates were placed on an orbital shaker at 100 rpm to induce sphere formation, as described (Schulz et al, 2012). To induce definitive endoderm differentiation, aggregates were collected 24 hours later in a 50 ml falcon tube, allowed to settle by gravity, washed once with PBS and re-suspended in d1 media (RPMI (Gibco) containing 0.2% FBS, 1:5000 ITS (Gibco), 100 ng/ml Activin A, and 50 ng/ml WNT3a (R&D systems)). Clusters from 3 wells were combined into 2 wells at this point and distributed into fresh low-attachment plates in 5.5 ml d1 media. Media thereafter was changed daily, by removing either 4.5 ml media (at the end of d1) or 5.5 ml media the following days and adding back 5.5 ml fresh media until day 9. After day 9, only 5 ml of media was removed and added daily. […]

Sequence of LTK (P29376 17-864, species assumed): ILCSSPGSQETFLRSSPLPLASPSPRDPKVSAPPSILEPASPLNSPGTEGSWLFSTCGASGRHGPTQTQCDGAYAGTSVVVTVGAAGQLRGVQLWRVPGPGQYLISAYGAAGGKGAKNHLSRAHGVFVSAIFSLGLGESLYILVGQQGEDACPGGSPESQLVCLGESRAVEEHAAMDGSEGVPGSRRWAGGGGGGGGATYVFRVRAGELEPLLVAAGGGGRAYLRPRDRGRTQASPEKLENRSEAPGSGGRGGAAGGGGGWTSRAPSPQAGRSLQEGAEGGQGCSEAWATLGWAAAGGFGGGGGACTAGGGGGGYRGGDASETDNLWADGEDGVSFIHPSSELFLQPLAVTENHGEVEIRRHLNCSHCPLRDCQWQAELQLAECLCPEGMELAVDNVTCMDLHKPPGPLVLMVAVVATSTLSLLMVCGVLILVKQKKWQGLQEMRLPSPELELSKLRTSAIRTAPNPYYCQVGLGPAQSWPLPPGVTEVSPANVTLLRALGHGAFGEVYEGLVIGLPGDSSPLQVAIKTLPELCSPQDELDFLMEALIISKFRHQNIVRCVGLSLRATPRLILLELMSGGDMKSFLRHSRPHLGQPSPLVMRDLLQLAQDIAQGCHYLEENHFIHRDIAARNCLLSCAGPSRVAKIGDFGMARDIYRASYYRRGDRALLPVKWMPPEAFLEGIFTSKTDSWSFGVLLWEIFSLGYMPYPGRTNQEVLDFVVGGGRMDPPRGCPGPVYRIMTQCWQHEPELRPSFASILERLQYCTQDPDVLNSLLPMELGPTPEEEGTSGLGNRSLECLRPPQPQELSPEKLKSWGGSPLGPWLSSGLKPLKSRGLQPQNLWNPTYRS
Sequence of ALK (Q9UM73 19-1620, species assumed): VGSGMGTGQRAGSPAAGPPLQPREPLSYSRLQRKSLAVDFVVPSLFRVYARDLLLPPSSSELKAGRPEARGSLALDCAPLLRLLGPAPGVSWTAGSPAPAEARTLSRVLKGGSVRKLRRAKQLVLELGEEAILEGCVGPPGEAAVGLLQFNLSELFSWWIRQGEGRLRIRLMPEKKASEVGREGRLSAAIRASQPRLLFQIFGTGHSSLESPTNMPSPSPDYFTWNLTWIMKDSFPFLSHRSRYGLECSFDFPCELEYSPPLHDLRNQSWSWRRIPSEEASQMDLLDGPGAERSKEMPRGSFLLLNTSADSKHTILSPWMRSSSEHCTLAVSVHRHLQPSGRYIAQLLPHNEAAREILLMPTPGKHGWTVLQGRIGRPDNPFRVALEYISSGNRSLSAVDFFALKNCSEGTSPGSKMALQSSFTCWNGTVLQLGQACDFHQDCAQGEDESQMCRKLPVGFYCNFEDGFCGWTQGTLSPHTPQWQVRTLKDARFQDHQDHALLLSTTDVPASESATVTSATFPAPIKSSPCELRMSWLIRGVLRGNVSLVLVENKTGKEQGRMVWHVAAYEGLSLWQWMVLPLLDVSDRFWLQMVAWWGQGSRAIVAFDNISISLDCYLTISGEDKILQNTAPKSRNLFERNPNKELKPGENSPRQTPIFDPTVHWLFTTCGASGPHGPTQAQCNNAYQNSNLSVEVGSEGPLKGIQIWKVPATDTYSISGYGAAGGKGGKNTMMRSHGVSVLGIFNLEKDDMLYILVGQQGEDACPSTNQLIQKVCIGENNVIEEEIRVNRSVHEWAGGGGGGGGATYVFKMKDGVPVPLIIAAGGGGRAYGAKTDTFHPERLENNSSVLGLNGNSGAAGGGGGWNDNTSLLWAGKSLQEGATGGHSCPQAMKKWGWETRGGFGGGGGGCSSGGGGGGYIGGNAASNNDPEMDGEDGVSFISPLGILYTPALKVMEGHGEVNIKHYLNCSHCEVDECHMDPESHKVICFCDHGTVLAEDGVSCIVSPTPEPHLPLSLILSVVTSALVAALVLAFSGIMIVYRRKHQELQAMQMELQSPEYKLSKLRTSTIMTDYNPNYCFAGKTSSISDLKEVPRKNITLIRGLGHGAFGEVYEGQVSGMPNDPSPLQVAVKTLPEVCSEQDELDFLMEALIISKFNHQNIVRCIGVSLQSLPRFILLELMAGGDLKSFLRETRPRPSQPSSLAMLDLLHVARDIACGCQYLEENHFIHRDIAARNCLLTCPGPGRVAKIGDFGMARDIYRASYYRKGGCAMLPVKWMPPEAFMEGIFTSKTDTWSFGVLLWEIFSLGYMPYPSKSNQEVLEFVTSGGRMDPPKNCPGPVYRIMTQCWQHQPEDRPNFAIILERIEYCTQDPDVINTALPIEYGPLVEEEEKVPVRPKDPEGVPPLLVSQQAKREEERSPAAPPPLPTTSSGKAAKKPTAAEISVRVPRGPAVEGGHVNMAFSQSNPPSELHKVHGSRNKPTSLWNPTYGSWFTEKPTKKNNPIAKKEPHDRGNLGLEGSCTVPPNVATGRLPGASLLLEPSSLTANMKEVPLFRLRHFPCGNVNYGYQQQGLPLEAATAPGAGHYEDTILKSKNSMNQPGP

Molecule	inhibition of FLT3 (Flt3)	inhibition of LTK (LTK)	inhibition of ALK (ALK)	inhibition of AXL (Axl)	generation of PDX1+ cells over base media alone [1]	NEUROG3 expression (endocrine differentiation) [2]
CCc1nc(C(N)=O)c(Nc2ccc(N3CCC(N4CCN(C)CC4)CC3)c(OC)c2)nc1NC1CCOCC1 [ASP2215]	over 50%	over 50%	over 50%	over 50%		
B1					did not result in enhanced generation	noted only when spheres had been exposed to N
